Experimental data published in patent US6355630B1, “Estra-1,3,5(10)-triene-7α-thioethers” (priority 1997, dated 2002).
Several values for one entry are separate records, joined by “and”; a condition that tells them apart may be missing. Equal entries are not always repeated. Where two headings read alike, the source gives them in different places.

Columns and labels:
Ishikawa uterine cells = assay: Ishikawa cell alkaline phosphatase test procedure; format: cell-based, human; settings: for EC50: reference standards, read-out: ED50, estrogenic activity by the alkaline phosphatase method; for Alkaline phosphatase activity, percent of response related to 1 nM 17β-estradiol: 48 h
Protocol: Ishikawa Cell Alkaline Phosphatase Test Procedure
Cell Maintenance and Treatment
Ishikawa cells were maintained in DMEM/F12 (50%:50%) containing phenol red+10% fetal bovine serum and the medium was supplemented with 2 mM Glutamax, 1% Pen/Strap and 1 mM sodium pyruvate. Five days prior to the beginning of each evaluation (treatment of cells) the medium was changed to phenol red-free DMEM/F12+10% dextran coated charcoal stripped serum. On the day before treatment, cells were harvested using 0.5% trypsin/EDTA and plated at a density of 5×10^4 cells/well in 96-well tissue culture plates. […] Cells were treated for 48 h prior to assay. […] Sample population for at each dose was n=8.
Alkaline Phosphatase Test Procedure
At the end of 48 h the media was aspirated and cells were washed three times with phosphate buffered saline (PBS); 50 μL of lysis buffer (0.1 M Tris-HCl, pH 9.8, 0.2% Triton X-100) was added to each well. Plates were placed at −80° C. for a minimum of 15 minutes. Plates were thawed at 37° C. followed by the addition of 150 μL of 0.1 M Tris-HCl, pH 9.8, containing 4 mM para-nitrophenylphosphate (pNPP) to each well (final concentration, 3 mM pNPP).
Absorbance and slope calculations were made using the KineticCalc Application program (Bio-Tek Instruments, Inc., Winooski, Vt.). Results are expressed as the mean +/−S.D. of the rate of enzyme reaction (slope) averaged over the linear portion of the kinetic reaction curve (optical density readings every 5 minutes for 30 minutes absorbance reading).
The four compounds were used as reference standards:
A description of these methods is described by Holinka, C. F., Hata, H., Kuramoto, H. and Gurpide, E. (1986) Effects of steroid hormones and antisteroids on alkaline phosphatase activity in human endometrial cancer cells (Ishikawa Line). Cancer Research, 46:2771-2774, and by Littlefield, B. A., Gurpide, E., Markiewicz, L., McKinley, B. and Hochberg, R. B. (1990) A simple and sensitive microtiter plate estrogen bioassay based on stimulation alkaline phosphatase in Ishikawa cells; Estrogen action of D5 adrenal steroids. Endocrinology, 6:2757-2762.

rat uterus = assay: Rat uterotrophic/antiuterotrophic test procedure; format: in vivo; settings: 1 ug 17β-estradiol, daily ip, 4-day immature rat
Protocol: Rat Uterotrophic/Antiuterotrophic Test Procedure
The estrogenic and antiestrogenic properties of the compounds were determined in a 4-day immature rat uterotrophic assay (as described previously by L. J. Black and R. L. Goode, Life Sciences, 26, 1453 (1980)). Immature Sprague-Dawley rats (female, 18 days old) were tested in groups of six. […] On day 4 the animals were sacrificed by CO2 asphyxiation and their uteri were removed and stripped of excess lipid, any fluid removed and the wet weight determined. A small section of one horn was submitted for histology and the remainder used to isolate total RNA in order to evaluate complement component 3 gene expression.
Representative compounds of this invention were evaluated in the rat uterotrophic/antiuterotrophic assay to determine their in vivo effects on the rat uterus.

human estrogen receptor = biological target: T1, human estrogen receptor (Homo sapiens, UniProt P03372); assay: In vitro estrogen receptor binding test procedure ([3H]-17β-estradiol competition)
T1 construct: expressed in transfected cells; host or cells: Chinese Hamster ovary (CHO) cells; ribosome-free cytosol
T1 sequence (P03372 1-595): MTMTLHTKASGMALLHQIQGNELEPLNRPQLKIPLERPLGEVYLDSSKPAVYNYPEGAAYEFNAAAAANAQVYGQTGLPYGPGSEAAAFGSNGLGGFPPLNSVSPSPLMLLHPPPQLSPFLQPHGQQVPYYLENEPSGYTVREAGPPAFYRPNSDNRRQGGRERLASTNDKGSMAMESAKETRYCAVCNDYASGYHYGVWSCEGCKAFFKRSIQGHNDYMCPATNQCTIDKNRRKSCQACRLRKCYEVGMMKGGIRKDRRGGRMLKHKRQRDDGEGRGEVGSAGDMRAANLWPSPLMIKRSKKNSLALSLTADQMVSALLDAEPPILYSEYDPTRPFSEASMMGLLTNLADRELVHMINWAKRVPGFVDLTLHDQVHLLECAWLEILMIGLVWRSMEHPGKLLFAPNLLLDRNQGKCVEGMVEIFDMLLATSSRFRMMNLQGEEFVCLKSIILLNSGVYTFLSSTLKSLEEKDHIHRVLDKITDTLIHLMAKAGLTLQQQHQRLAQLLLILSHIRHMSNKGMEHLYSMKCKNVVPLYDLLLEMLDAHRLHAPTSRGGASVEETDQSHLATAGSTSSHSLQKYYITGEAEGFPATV
Protocol: In vitro Estrogen Receptor Binding Test Procedure
Chinese Hamster ovary (CHO) cells overexpressing the estrogen receptor were grown in […] dishes in DMEM+10% dextran coated charcoal, stripped fetal bovine serum. The plates were washed twice with PBS and once with 10 mM Tris-HCl, pH 7.4, 1 mM EDTA. Cells were harvested by scraping the surface and then the cell suspension was placed on ice. Cells were disrupted with a hand-held motorized tissue grinder using two, 10-second bursts. The crude preparation was centrifuged at 12,000 g for 20 minutes followed by a 60 minute spin at 100,000 G to produce a ribosome free cytosol. The cytosol was then frozen and stored at −80° C. Protein concentration of the cytosol was estimated using the BCA assay with reference standard protein.
Binding Test Procedure Conditions
100 uG/100 uL of the receptor preparation was aliquoted per well. […] The plate was incubated at room temperature for 2.5 h. At the end of this incubation period 150 uL of ice-cold dextran coated charcoal (5% activated charcoal coated with 0.05% 69K dextran) was added to each well and the plate was immediately centrifuged at 99 g for 5 minutes at 4° C. 200 uL of the supernatant solution was then removed for scintillation counting. Samples were counted to 2% or 10 minutes, whichever occurs first. […] Also, wells containing radioactivity but no cytosol were processed with charcoal to estimate unremovable DPM of [^3H] […] 96-well plates were used because they have proven to bind the least amount of estradiol.
Counts per minute (CPM) of radioactivity were automatically converted to disintegrated per minute (DPM) by the Beckman LS 7500 Scintillation Counter using a set of quenched standards to generate a H# for each sample. To calculate the % of estradiol binding in the presence of 100 or 500 fold competitor the following formula was applied:
((DPM sample−DPM not removed by charcoal/(DPM estradiol−DPM not removed by charcoal))×100%=% of estradiol binding
For the generation of IC50 curves, % binding is plotted vs compound. […] Values are reported as IC50 values. […] For a description of these methods, see Hulme, E. C., ed. 1992. Receptor-Ligand Interactions: A Practical Approach. IRL Press, New York.(see especially chapter 8).
Compounds were tested for their ability to displace estradiol in a human ER-receptor preparation as described above.

[1] = 1 uM compound + 1 nM E2, antagonist mode

Row | SMILES | Alkaline phosphatase activity, percent of response related to 1 nM 17β-estradiol (Ishikawa uterine cells; 0.01 uM compound, agonist mode) | Alkaline phosphatase activity, percent of response related to 1 nM 17β-estradiol (Ishikawa uterine cells; 0.1 uM compound, agonist mode) | Alkaline phosphatase activity, percent of response related to 1 nM 17β-estradiol (Ishikawa uterine cells; [1]) | Alkaline phosphatase activity, percent of response related to 1 nM 17β-estradiol (Ishikawa uterine cells; 1 uM compound, agonist mode) | further results
1 | C[C@]12CC[C@@H]3c4ccc(O)cc4CC[C@H]3[C@@H]1CC[C@H]2O [17α-estradiol, reference compound] | – | – | – | – | EC50 (Ishikawa uterine cells): 1.42 nM
2 | C[C@]12CC[C@@H]3c4ccc(O)cc4CC[C@H]3[C@@H]1CC[C@@H]2O [17β-estradiol, reference compound] | – | – | – | – | EC50 (Ishikawa uterine cells; Homo sapiens, Ishikawa): 0.03 nM; Uterine wet weight (rat uterus): 87.6 mg and 82.1 mg and 92.6 mg and 83.8 mg and 94.6 mg
3 | CC(=O)O[C@H]1CC[C@H]2[C@@H]3[C@H](Sc4ccc(O)cc4)C(=O)c4cc(O)ccc4[C@H]3CC[C@]12C [Example 1, (7α,17β) 17-Acetoxy-3-hydroxy-7-(4-hydroxyphenyl)thio-estra-1,3,5(10)-triene-6-one] | 7% | 9% | 76% | 29% | –
4 | CC(=O)O[C@H]1CC[C@H]2[C@@H]3[C@H](Sc4ccc(Br)cc4)C(=O)c4cc(O)ccc4[C@H]3CC[C@]12C [Example 5, (7α,17β) 17-Acetoxy-7-(4-bromophenyl)thio-3-hydroxy-estra-1,3,5(10)-trien-6-one] | 58% | 108% | 106% | 104% | Behaviour in the uterine cell line (agonist/antagonist) (Ishikawa uterine cells; in words, from Table 2): fully efficacious agonists
5 | C[C@]12CC[C@@H]3c4ccc(O)cc4[C@@H](O)[C@@H](Sc4ccc(Br)cc4)[C@H]3[C@@H]1CC[C@@H]2O [Example 7, (6α,7α,17β) 7-(4-Bromophenyl)thio-estra-1,3,5(10)-triene-3,6,17-triol] | 46% | 58% | 98% | 66% | IC50 (human estrogen receptor): 800 nM
6 | COC(=O)C=Cc1ccc(S[C@@H]2Cc3cc(O)ccc3[C@H]3CC[C@]4(C)[C@@H](OC(C)=O)CC[C@H]4[C@@H]32)cc1 [Example 9, (7α,17β) 7-{4-[2-(Methoxycarbonyl)-ethenyl]phenyl}thio-estra-1,3,5(10)-triene-3,17-diol-17-acetate] | 1% | 33% | 59% | 61% | Receptor IC50 (human estrogen receptor; displacement of [3H]17β-estradiol, CHO cell cytosol ER preparation): No Binding; Competition for the human estrogen receptor (human estrogen receptor; in words, compounds with 17β-acetate): competed less effectively
7 | CN(C)C(=O)/C=C/c1ccc(S[C@@H]2Cc3cc(O)ccc3[C@H]3CC[C@]4(C)[C@@H](O)CC[C@H]4[C@@H]32)cc1 [Example 10, (7α,17β) 7-{4-[(E)-2-(N,N-Dimethylcarbamoyl)-ethenyl]phenyl}thio-estra-1,3,5(10)-triene-3,17-diol] | 0% | 12% | 57% | 28% | –
8 | C[C@]12CC[C@@H]3c4ccc(O)cc4C[C@@H](Sc4ccc(C=CC(=O)O)cc4)[C@H]3[C@@H]1CC[C@@H]2O [Example 11, (7α,17β) 7-{4-[2-(Carboxy)-ethenyl]phenyl}thio-estra-1,3,5(10)-triene-3,17-diol] | 0% | 23% | 50% | 21% | IC50 (human estrogen receptor): 1500 nM
9 | CC12CCC3c4ccc(O)cc4CC(Sc4ccc(-c5ccc(C=O)cc5)cc4)C3C1CCC2O (stereo not drawn) [Example 12, (7α,17β) 7-(4-(4′-Formylbiphenyl)]thio-estra-1,3,5(10)-triene-3,17-diol] | 17% | 67% | 92% | 89% | IC50 (human estrogen receptor; read-out: Receptor IC50): 300 nM
10 | COc1ccc2c(c1)CC(Sc1ccc(OCCN3CCCCC3)cc1)C1C2CCC2(C)C(O)CCC12 (stereo not drawn) [Example 15, (7α,17β) 3-Methoxy-7-{4-[2-(piperdin-1-yl)]ethoxyphenyl}thio-estra-1,3,5(10)-triene-17-ol] | 0% | 0% | 69% | 22% | –
11 | C[C@]12CC[C@@H]3c4ccc(O)cc4CC[C@H]3[C@@H]1C[C@@H](O)[C@@H]2O [estriol, reference compound] | – | – | – | – | EC50 (Ishikawa uterine cells; Homo sapiens, Ishikawa): 0.13 nM
12 | C[C@]12CC[C@@H]3c4ccc(O)cc4CC[C@H]3[C@@H]1CCC2=O [estrone, reference compound] | – | – | – | – | EC50 (Ishikawa uterine cells; Homo sapiens, Ishikawa): 0.36 nM
